Key:
Test in all cases: relative viability (nuclei count vs DMSO), 5 days (fraction); higher = more cells survive
Everolimus + Bortezomib = compound: CO[C@H]1C[C@@H]2CC[C@@H](C)[C@@](O)(O2)C(=O)C(=O)N2CCCC[C@H]2C(=O)O[C@H]([C@H](C)C[C@@H]2CC[C@@H](OCCO)[C@H](OC)C2)CC(=O)[C@H](C)/C=C(\C)[C@@H](O)[C@@H](OC)C(=O)[C@H](C)C[C@H](C)/C=C/C=C/C=C/1C [Everolimus] + CC(C)C[C@H](NC(=O)[C@H](Cc1ccccc1)NC(=O)c1cnccn1)B(O)O [Bortezomib] (partner 0.002 µM)
Method in brief: (§1)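 After 5 days of treatment, lung cancer cells in 1536-well plates were fixed and stained in a single step (final 0.05% Triton X-100, 1% formaldehyde, 1 ug/ml Hoechst) and their nuclei counted on 4× images. Treatment had been applied by pin tool the day after seeding as one drug alone or as a fixed anchor-drug dose with five library-drug doses (not always all listed) in √10 steps. Relative viability is the nuclei count of treated wells divided by that of vehicle wells, and values are medians of duplicate plates.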

Everolimus + Pictilisib = compound: CO[C@H]1C[C@@H]2CC[C@@H](C)[C@@](O)(O2)C(=O)C(=O)N2CCCC[C@H]2C(=O)O[C@H]([C@H](C)C[C@@H]2CC[C@@H](OCCO)[C@H](OC)C2)CC(=O)[C@H](C)/C=C(\C)[C@@H](O)[C@@H](OC)C(=O)[C@H](C)C[C@H](C)/C=C/C=C/C=C/1C [Everolimus] + CS(=O)(=O)N1CCN(Cc2cc3nc(-c4cccc5[nH]ncc45)nc(N4CCOCC4)c3s2)CC1 [Pictilisib] (partner 1 µM)
Method in brief: as §1

Everolimus + Olaparib = compound: CO[C@H]1C[C@@H]2CC[C@@H](C)[C@@](O)(O2)C(=O)C(=O)N2CCCC[C@H]2C(=O)O[C@H]([C@H](C)C[C@@H]2CC[C@@H](OCCO)[C@H](OC)C2)CC(=O)[C@H](C)/C=C(\C)[C@@H](O)[C@@H](OC)C(=O)[C@H](C)C[C@H](C)/C=C/C=C/C=C/1C [Everolimus] + O=C(c1cc(Cc2n[nH]c(=O)c3ccccc23)ccc1F)N1CCN(C(=O)C2CC2)CC1 [Olaparib] (partner 8 µM)
Method in brief: as §1

Everolimus + Trametinib = compound: CO[C@H]1C[C@@H]2CC[C@@H](C)[C@@](O)(O2)C(=O)C(=O)N2CCCC[C@H]2C(=O)O[C@H]([C@H](C)C[C@@H]2CC[C@@H](OCCO)[C@H](OC)C2)CC(=O)[C@H](C)/C=C(\C)[C@@H](O)[C@@H](OC)C(=O)[C@H](C)C[C@H](C)/C=C/C=C/C=C/1C [Everolimus] + CC(=O)Nc1cccc(-n2c(=O)n(C3CC3)c(=O)c3c(Nc4ccc(I)cc4F)n(C)c(=O)c(C)c32)c1 [Trametinib] (partner 0.02 µM)
Method in brief: as §1

| Cell Line | relative viability (Everolimus + Bortezomib; first compound 0.01 µM) | relative viability (Everolimus + Bortezomib; first compound 0.03162 µM) | relative viability (Everolimus + Bortezomib; first compound 0.1 µM) | relative viability (Everolimus + Bortezomib; first compound 0.3162 µM) | relative viability (Everolimus + Bortezomib; first compound 1 µM) | relative viability (Everolimus + Pictilisib; first compound 0.01 µM) | relative viability (Everolimus + Pictilisib; first compound 0.03162 µM) | relative viability (Everolimus + Pictilisib; first compound 0.1 µM) | relative viability (Everolimus + Pictilisib; first compound 0.3162 µM) | relative viability (Everolimus + Pictilisib; first compound 1 µM) | relative viability (Everolimus + Olaparib; first compound 0.01 µM) | relative viability (Everolimus + Olaparib; first compound 0.03162 µM) | relative viability (Everolimus + Olaparib; first compound 0.1 µM) | relative viability (Everolimus + Olaparib; first compound 0.3162 µM) | relative viability (Everolimus + Olaparib; first compound 1 µM) | relative viability (Everolimus + Trametinib; first compound 0.01 µM) | relative viability (Everolimus + Trametinib; first compound 0.03162 µM) | relative viability (Everolimus + Trametinib; first compound 0.1 µM) | relative viability (Everolimus + Trametinib; first compound 0.3162 µM) | relative viability (Everolimus + Trametinib; first compound 1 µM) |
| --- | --- | --- | --- | --- | --- | --- | --- | --- | --- | --- | --- | --- | --- | --- | --- | --- | --- | --- | --- | --- |
| NCI-H1299 | 1.04 | 1.08 | 1.02 | 1.07 | 1.1 | 0.54 | 0.537 | 0.512 | 0.386 | 0.528 | 0.953 | 0.987 | 0.994 | 1.04 | 0.841 | – | – | – | – | – |
| NCI-H1395 | – | – | – | – | – | 0.571 | 0.548 | 0.508 | 0.5 | 0.496 | 0.405 | 0.423 | 0.377 | 0.401 | 0.379 | 0.724 | 0.641 | 0.657 | 0.694 | 0.652 |
| NCI-H1563 | 0.665 | 0.724 | 0.762 | 0.715 | 0.704 | 0.664 | 0.672 | 0.632 | 0.676 | 0.646 | – | – | – | – | – | – | – | – | – | – |
| NCI-H1648 | – | – | – | – | – | – | – | – | – | – | 0.577 | 0.473 | 0.613 | 0.597 | 0.482 | 0.388 | 0.435 | 0.395 | 0.307 | 0.325 |
| NCI-H1703 | 0.183 | 0.178 | 0.212 | 0.213 | 0.186 | 0.208 | 0.24 | 0.306 | 0.228 | 0.25 | 0.36 | 0.218 | 0.333 | 0.233 | 0.337 | – | – | – | – | – |
| NCI-H1793 | – | – | – | – | – | 0.225 | 0.222 | 0.141 | 0.237 | 0.19 | 0.346 | 0.345 | 0.319 | 0.343 | 0.235 | 0.315 | 0.247 | 0.247 | 0.312 | 0.228 |
| NCI-H1944 | – | – | – | – | – | 0.315 | 0.314 | 0.248 | 0.31 | 0.284 | 0.389 | 0.329 | 0.325 | 0.35 | 0.351 | 0.311 | 0.303 | 0.341 | 0.312 | 0.298 |
| NCI-H2170 | – | – | – | – | – | 0.229 | 0.234 | 0.159 | 0.214 | 0.198 | 0.361 | 0.285 | 0.318 | 0.329 | 0.316 | 0.316 | 0.248 | 0.266 | 0.252 | 0.279 |
| NCI-H2342 | – | – | – | – | – | – | – | – | – | – | 0.385 | 0.363 | 0.304 | 0.333 | 0.36 | 0.649 | 0.54 | 0.482 | 0.468 | 0.583 |
| SK-MES-1 | – | – | – | – | – | 0.281 | 0.243 | 0.265 | 0.236 | 0.215 | 0.539 | 0.468 | 0.512 | 0.537 | 0.421 | 0.38 | 0.412 | 0.372 | 0.397 | 0.277 |
| SW 900 | – | – | – | – | – | – | – | – | – | – | 0.801 | 0.744 | 0.814 | 0.656 | 0.649 | 0.604 | 0.733 | 0.536 | 0.717 | 0.432 |

— the supplement of paper PMC10307832
